The record followed here is publication PMC11436024, “E-Cyanoacrylamides and 5-Imino Pyrrolones against Trypanosoma cruzi: Activity and Induced Mechanisms of Cell Death” (Tropical Medicine and Infectious Disease, 2024).

In series [1] the test system is Murine macrophages J774.A1. Kind of series: Cytotoxicity assay (alamarBlue). The following applies: for IC50 (cytotoxic concentration 50, CC50): 24 h. The format is cell-based. Here is the method: Murine macrophages J774.A1 strain ATCC #TIB-67, acquired from American Type Culture Collection (ATTC, LGC Promochem, Barcelona, Spain), were cultured in DMEM medium and maintained at 37 °C and 5% CO2. This assay followed the same principle as the previous one, but in this case, macrophages were used instead of parasites to determine the toxicity of the compounds. A total of 50 μL with a concentration of 2 × 10^5 cells/mL was added to each well with serial dilutions of the compounds in 50 μL of RPMI medium. After this, 10% of alamarBlue™ reagent was added and the plate was incubated at 37 °C and 5% CO2 for 24 h. After this time, the fluorescence was read using the EnSpire Multimode Plate Reader® and the cytotoxic concentration 50 (IC50) was calculated. Inhibitory and cytotoxic concentrations (IC50, IC90, and CC50) were determined in duplicate on three different days using non-linear regression [Inhibitor] vs. response variable slope (four parameters) using non-linear regression analysis with 95% confidence, using GraphPad Prism 10.1.1 statistical software. The analysis was developed using Tukey’s test, considering significant values of p < 0.05. ANOVA analysis was also performed using GraphPad Prism 10.1.1.
In general terms: Resazurin is reduced to fluorescent resorufin, in cell work by metabolically active cells.

The test system of series [2] is epimastigote form of T. cruzi. In words: In vitro epimastigote activity assay (alamarBlue). The format is cell-based, Trypanosoma cruzi strain Y. The following applies: for IC50: Trypanosoma cruzi, 72 h, epimastigote form of T. cruzi, 72 h incubation at 26 °C, mean ± standard deviation; for SI (selectivity index, CC50/IC50): against the epimastigote form of T. cruzi, CC50 murine macrophages. Here is the method:
This assay is based on the use of alamarBlue. The alamarBlue reagent contains resazurin, which emits blue fluorescence under normal conditions. However, when the parasites are still alive and in contact with cell metabolism, the reagent is reduced to resorufin, which emits pink fluorescence.
In 96-well plates, serial dilutions of each compound were added with parasites at a concentration of 10^6 cells/mL in a final volume of 200 µL. Finally, 10% alamarBlue reagent was added, with 20 µL per well.
After 72 h of incubation at 26 °C, the plate was introduced into the plate reader and the fluorescence (570 nm excitation, 585 nm emission) of each well was determined using the EnSpire Multimode Plate Reader® (PerkinElmer, Thermo Fischer Scientific, Madrid, Spain). Finally, using a non-linear regression analysis in Graphpad Prism 9.0.0. the inhibitory concentration 50 (IC50) was calculated.
Inhibitory and cytotoxic concentrations (IC50, IC90, and CC50) were determined in duplicate on three different days using non-linear regression [Inhibitor] vs. response variable slope (four parameters) using non-linear regression analysis with 95% confidence, using GraphPad Prism 10.1.1 statistical software. The analysis was developed using Tukey’s test, considering significant values of p < 0.05. ANOVA analysis was also performed using GraphPad Prism 10.1.1.

Series [3] relates to L3 larvae of Culex pipiens. In words: Larvicidal (in vivo toxicity) assay against mosquito larvae. Here is the method:
The L3 larvae from Culex pipiens, used in the cytotoxicity assay, were cultured at the Laboratorio de Entomología Médica of the Instituto Universitario de Enfermedades Tropicales y Salud Pública de Canarias in Tenerife, Spain.
For this purpose, 3 mL of sterile water with food for 48 h was added to 24-well plates, following WHO guidelines of necessary nutrients. In each well, one L3 larva of Culex pipiens was added, together with different concentrations of the compounds to be tested (IC90 and two times IC90). In addition, negative controls, without treatment and with the maximum amount of DMSO added in the treatments, and positive controls, benznidazole as the reference treatment and triton, previously reported to be toxic to larvae, were added. All experiments were performed in duplicate and repeated on 3 different days, observing larval viability at different times (1, 3, 12, 24, and 48 h after the start of treatment).

Series [4] has as its system amastigote form of T. cruzi. Kind of series: In vitro amastigote activity assay (alamarBlue, intracellular parasites in macrophages). The class given is cell-based, Trypanosoma cruzi. The settings on record: for IC50: Trypanosoma cruzi, Macrophage, amastigote form of T. cruzi in macrophages, 24 h with compound at 37 °C, mean ± standard deviation; for SI (selectivity index, CC50/IC50): against the amastigote form of T. cruzi, CC50 murine macrophages. Here is the method:
To perform the assay against the intracellular form of the parasite, the same colorimetric method based on the alamarBlue was developed. To produce the internalization of the parasites, an excess of epimastigote forms were added (10^5:10^4 parasites/macrophages in 100 µL of DMEM) to a 96-well plate for 24 h at 37 °C. Then, the wells were washed 3 times to eliminate the non-internalized parasites, and the serial dilutions of the compounds were added and dissolved in DMEM medium. After another incubation of 24 h at 37 °C, the drugs were eliminated and the cells were lysed with 0.05% SDS for 30 s. After adding LIT in a final volume of 200 µL and 10% of alamarBlue™ reagent, the plates were incubated for 96 h to promote the externalization of the parasites. Finally, the fluorescence was read using the EnSpire Multimode Plate Reader® and the inhibitory concentration 50 (IC50) was calculated. Inhibitory and cytotoxic concentrations (IC50, IC90, and CC50) were determined in duplicate on three different days using non-linear regression [Inhibitor] vs. response variable slope (four parameters) using non-linear regression analysis with 95% confidence, using GraphPad Prism 10.1.1 statistical software. The analysis was developed using Tukey’s test, considering significant values of p < 0.05. ANOVA analysis was also performed using GraphPad Prism 10.1.1.

[5] abbreviates: murine macrophages, mean ± standard deviation.
The mark [6] stands for this setting: 2IC90 (two times IC90) of compound, 1 h.
[7] abbreviates: 2IC90 (two times IC90) of compound, 3 h.
[8] abbreviates: 2IC90 (two times IC90) of compound, 12 h.
Where [9] appears, read: 2IC90 (two times IC90) of compound, 24 h.
The mark [10] stands for this setting: 2IC90 (two times IC90) of compound, 48 h.

With `COc1ccc(CNC(=O)/C=C/C#N)cc1` [E], the “IC50 (cytotoxic concentration 50, CC50)” value in series [1] (setting [5]) turned out to be 319.61 ± 60.22 µM. In series [2], the IC50 (usually the concentration that inhibits the measured activity by half) was greater than 100 µM and the “SI (selectivity index, CC50/IC50)” value was less than 3.2.
Take `O=C(Cn1ccnc1[N+](=O)[O-])NCc1ccccc1` [Benznidazole, reference compound]: the “IC50 (cytotoxic concentration 50, CC50)” value in series [1] (setting [5]) is 399.91 ± 1.40 µM. Further, the larval viability entry in series [3] (setting [6]) is reported as “Alive”; in series [3] (setting [7]), “Alive”; in series [3] (setting [8]), “Alive”; in series [3] (setting [9]), “Alive”; in series [3] (setting [10]) it was “Alive”; in series [3] (IC90 of compound, 1 h) it was “Alive”. Besides, the larval viability result is recorded as “Alive” in series [3] (IC90 of compound, 3 h); “Alive” in series [3] (IC90 of compound, 12 h); “Alive” in series [3] (IC90 of compound, 24 h); “Alive” in series [3] (IC90 of compound, 48 h). Further, the IC50 in series [2] worked out at 6.92 ± 0.77 µM; in series [4], 2.67 ± 0.39 µM. Further, the “SI (selectivity index, CC50/IC50)” value in series [2] is on record as 57.8; in series [4] it was 149.8.
Turning to Triton [reference compound], the larval viability entry in series [3] (0.01%, 1 h) is listed as “Alive”; in series [3] (0.01%, 3 h), “Alive”; in series [3] (0.01%, 12 h), “Dead”; in series [3] (0.01%, 24 h) it was “Dead”; in series [3] (0.01%, 48 h), “Dead”; in series [3] (0.5%, 1 h), “Alive”. Also, the larval viability result in series [3] (0.5%, 3 h) is listed as “Dead”; in series [3] (0.5%, 12 h) it was “Dead”; in series [3] (0.5%, 24 h) it was “Dead”; in series [3] (0.5%, 48 h), “Dead”; in series [3] (1%, 1 h), “Dead”; in series [3] (1%, 3 h) it was “Dead”. Moreover, the larval viability result in series [3] (1%, 12 h) is reported as “Dead”; in series [3] (1%, 24 h), “Dead”; in series [3] (1%, 48 h) it was “Dead”.
As for `N#C/C=C/C(=O)Nc1ccccc1` [A], the “IC50 (cytotoxic concentration 50, CC50)” value in series [1] (setting [5]) was 94.78 ± 23.11 µM. Besides, in series [2], the IC50 was found to be 18.7 ± 1.9 µM and the “SI (selectivity index, CC50/IC50)” value was 5.1.
For `COc1ccc(CN2C(=N)C=CC2=O)cc1` [F], the “IC50 (cytotoxic concentration 50, CC50)” value in series [1] (mouse) was found to be 2.82 ± 1.39 µM. Also, the “SI (selectivity index, CC50/IC50)” value in series [2] was determined as 0.8.
As to `COc1ccc(N2C(=N)C=CC2=O)cc1` [H], the “toxicity of Z isomer relative to E isomer (times more toxic)” value in series [1] (G–H isomer pair, murine macrophages) is 100. In addition, the “IC50 (cytotoxic concentration 50, CC50)” value in series [1] (setting [5]) is listed as 2.42 ± 1.58 µM. In addition, in series [2], the “SI (selectivity index, CC50/IC50)” value was found to be 0.9.
Turning to `N=C1C=CC(=O)N1Cc1ccccc1` [D], the “IC50 (cytotoxic concentration 50, CC50)” value in series [1] (mouse) was 85.32 ± 3.71 µM. Further, in series [2], the IC50 came to 12.4 ± 1.49 µM and the “SI (selectivity index, CC50/IC50)” value turned out to be 6.9.
Consider `N#C/C=C/C(=O)NCc1ccccc1` [C], for which, in series [1] (setting [5]), the “IC50 (cytotoxic concentration 50, CC50)” value worked out at 208.01 ± 13.44 µM. Also, the larval viability entry in series [3] (setting [6]) is reported as “Alive”; in series [3] (setting [7]), “Alive”; in series [3] (setting [8]), “Alive”; in series [3] (setting [9]) it was “Alive”; in series [3] (setting [10]), “Alive”; in series [3] (IC90 of compound, 1 h), “Alive”. Further, the larval viability result in series [3] (IC90 of compound, 3 h) is “Alive”; in series [3] (IC90 of compound, 12 h), “Alive”; in series [3] (IC90 of compound, 24 h), “Alive”; in series [3] (IC90 of compound, 48 h) it was “Alive”. Moreover, the half-maximal inhibitory concentration (IC50) is 18.8 ± 2.03 µM in series [2] and 24.1 ± 6.22 µM in series [4]. For the same compound, in series [4], the “SI (selectivity index, CC50/IC50)” value was 8.6.
As to `COc1ccc(NC(=O)/C=C/C#N)cc1` [G], the “IC50 (cytotoxic concentration 50, CC50)” value in series [1] (setting [5]) was 266.62 ± 42.48 µM. The larval viability entry in series [3] (setting [6]) was “Alive”; in series [3] (setting [7]) it was “Alive”; in series [3] (setting [8]), “Alive”; in series [3] (setting [9]) it was “Alive”; in series [3] (setting [10]) it was “Alive”; in series [3] (IC90 of compound, 1 h) it was “Alive”. Besides, the larval viability result was “Alive” in series [3] (IC90 of compound, 3 h); “Alive” in series [3] (IC90 of compound, 12 h); “Alive” in series [3] (IC90 of compound, 24 h); “Alive” in series [3] (IC90 of compound, 48 h). For the same compound, the IC50 turned out to be 20.7 ± 2.66 µM in series [2] and 10.6 ± 3.05 µM in series [4]. Besides, the “SI (selectivity index, CC50/IC50)” value in series [4] was 25.2.
